Results: article PMC8414367, “(E)-7-Ethylidene-lithocholic Acid (7-ELCA) Is a Potent Dual Farnesoid X Receptor (FXR) Antagonist and GPBAR1 Agonist Inhibiting FXR-Induced Gene Expression in Hepatocytes and Stimulating Glucagon-like Peptide-1 Secretion From Enteroendocrine Cells” (Frontiers in Pharmacology, 2021)
Where two headings read alike, the source gives them in different places.

Key:
AML12 = assay: MTS viability assay; type: cell-based, murine; details: Mus musculus; AML12, 24 h, MTS; read-out: IC50 (µM), cell viability
Experimental: (§1) The potential cytotoxicity of 7-alkylated chenodeoxycholic acid derivatives were assessed in different human (HepG2, HepaRG and Huh7) and murine (AML12) hepatocyte-derived cell lines. For this purpose, hepatic cells were treated at increasing concentration for 24h and analyzed by MTS viability assay.
(§2) Table S2. Cell viability was determined using the Cell Titer 96 Aqueous One Solution Cell Proliferation Assay (MTS assay) after treatment with test compounds for 24 h in four different hepatic cell lines. Vehicle (0.1% DMSO) and background (10% SDS; v/v, toxic control) controls of cell viability were set to be 100% and 0%, respectively.

MTS viability assay = type: cell-based, murine; details: mouse, AML12 cells; AML12, 24 h, vehicle = 100%
Experimental: as §1, §2

FXR LBD = target: T1, FXR LBD (Homo sapiens, UniProt Q96RI1); assay: LanthaScreen TR-FRET FXR Coactivator Assay, antagonistic mode (SRC-2 peptide recruitment); type: biochemical
T1 construct: purchased ThermoFisher Scientific PV4833
T1 sequence (Q96RI1 262-486 limits assumed): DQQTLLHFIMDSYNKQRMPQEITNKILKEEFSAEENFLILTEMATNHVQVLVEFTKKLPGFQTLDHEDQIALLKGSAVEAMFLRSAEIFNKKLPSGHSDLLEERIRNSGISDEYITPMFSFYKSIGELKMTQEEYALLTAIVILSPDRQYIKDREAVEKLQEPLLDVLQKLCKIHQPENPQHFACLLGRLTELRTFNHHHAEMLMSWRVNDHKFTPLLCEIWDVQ
Experimental: The LanthaScreen® TR-FRET FXR Coactivator Assay (goat, PV4833, ThermoFisher Scientific) was performed to assess the affinity of tested compounds to FXR ligand-binding domain (LBD) in agonistic and antagonistic models. In the antagonistic assays, the FXR LBD was co-incubated with OCA or GW4064, together with tested ligands in increasing concentrations. The assay was performed according to the manufacturer’s protocols. […] Data have been obtained from three independent experiments performed in 4 replicates.

[1] = tested on: BSEP and SHP mRNA (FXR target genes), HepaRG cells; assay: RT-qPCR of FXR target genes in differentiated HepaRG cells; type: cell-based, human; details: for BSEP mRNA level upregulated by OCA / SHP mRNA level upregulated by OCA: 40 µM with OCA 1 µM, 24 h; for BSEP and SHP mRNA expression, compound per se: without OCA
Source text: Total RNA from HepaRG cells or primary human hepatocyte samples was isolated by the phenol/chloroform method with TRI-reagent (Merck) according to the manufacturer's protocol. The cDNA was synthesized using a Tetro cDNA Synthesis Kit (Bioline, now Meridian Bioscience, Memphis, United States), and RT-qPCR was run in the Quant Studio 6 instrument using the Fast Advanced Master Mix (ThermoFisher Scientific, Waltham, United States) according to the MIQE protocols. All the probes were obtained from ThermoFisher Scientific: ABCB11 (BSEP, Hs00184824_m1), NR0B2 (SHP, Hs00222677_m1).
FIGURE 6 Regulation of FXR downstream genes by 7-ELCA and 7β-propyl-CDCA in the presence or absence of 1 µM OCA as the potent FXR agonist. Real-time qPCR analysis of mRNA expression of (A,C) BSEP and (B,D) SHP genes was performed in terminally differentiated HepaRG hepatic cells (A,B), and in primary human hepatocytes (PHH) from one donor treated for 24 h (C,D). (E) SHP protein expression in HepaRG cells after 48 h treatment with OCA alone or in combination with 7-ELCA and 7β-propyl-CDCA. Data were normalized to B2M mRNA or GAPDH protein and are expressed relative to those of control (vehicle-treated) cells.

GPBAR1 = target: T2, GPBAR1 (Homo sapiens, UniProt Q8TDU6); assay: GPBAR1 CRE-luc luciferase reporter assay in HepG2 cells; type: cell-based; details: for CRE-luc activation compared to LCA (in words): 10 µM, 5 h, LCA 10 µM set as 100%
T2 construct: host or cells: HepG2
T2 sequence (Q8TDU6 1-330): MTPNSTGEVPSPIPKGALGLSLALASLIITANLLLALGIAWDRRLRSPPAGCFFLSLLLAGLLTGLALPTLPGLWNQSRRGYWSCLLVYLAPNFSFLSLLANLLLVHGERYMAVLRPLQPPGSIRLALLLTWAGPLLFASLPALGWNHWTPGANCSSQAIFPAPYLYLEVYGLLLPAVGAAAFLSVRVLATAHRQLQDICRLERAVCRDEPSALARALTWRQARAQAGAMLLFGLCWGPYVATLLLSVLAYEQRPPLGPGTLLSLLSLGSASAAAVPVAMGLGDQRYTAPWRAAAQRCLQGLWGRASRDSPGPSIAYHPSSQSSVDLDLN
Experimental: (C) Effects of LCA and 7-ELCA (both at 10 µM) on intracellular generation of cAMP in differentiated NCI-H716 cells after 30 min treatment. The increase in cAMP level (ΔcAMP) is presented as the difference between cAMP concertation in the treated sample after subtraction of the cAMP in the nontreated control sample. (D) Concentration-response curves for activation of GPBAR1 by LCA and 7-ELCA. EC50 values were calculated using nonlinear fitting of concentration-response curves. […] GLP-1 was normalized to protein concentration and GPBAR1 mRNA expression to GAPDH mRNA. Data are presented as a fold to control nontreated (NT) samples. Forskolin (FSK, 10 µM) was used as a GPBAR1-independent activator of cAMP production.

[2] = GW4064 1 µM, read-out: IC50, inhibition of GW4064-promoted interaction of SRC-2 and FXR
[3] = OCA 1 µM, read-out: IC50, inhibition of OCA-induced recruitment of SRC-2 to FXR LBD

Compound	IC50 (AML12) [µM]	viability at 24 h, 10 µM (MTS viability assay) [%]	IC50 (FXR LBD; [2]) [µM]	IC50 (FXR LBD; [3]) [µM]	BSEP mRNA level upregulated by OCA [1]	SHP mRNA level upregulated by OCA [1]	BSEP and SHP mRNA expression, compound per se [1]	CRE-luc activation compared to LCA (in words) (GPBAR1)	EC50 (GPBAR1; abstract, read-out: EC50, GPBAR1 agonist) [nM]
CCC[C@@]1(O)C[C@@H]2C[C@H](O)CC[C@]2(C)C2CC[C@@]3(C)C(CC[C@@H]3[C@H](C)CCC(=O)O)C21 (stereo partly drawn) [2f, 3α,7α-Dihydroxy-7β-propyl-5β-cholan-24-oic acid]	90.8	81.2 ± 1	13.8 ± 2.5	26.5 ± 2	reduced	reduced	did not have an impact	comparable activities to LCA	
C/C=C1\C[C@@H]2C[C@H](O)CC[C@]2(C)[C@H]2CC[C@]3(C)[C@@H]([C@H](C)CCC(=O)O)CC[C@H]3[C@H]12 [2a, (E)-3α-Hydroxy-7-ethylidene-5β-cholan-24-oic acid]	> 200	108 ± 4.8	6.6 ± 2.9	18 ± 2.7	reduced	reduced	did not have an impact	significantly increase CRE-luc activation more than LCA	26
